Source: PubChem BioAssay (NCI)
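Each compound was tested at five concentrations against cells in 96-well plates for 48 hours. Here, GI50 denotes the concentration required for 50% inhibition of growth. TGI denotes the concentration required for complete inhibition of growth.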

Key:
Experiment in all cases: DTP human tumour cell line panel, 48 h
SNB-75 CNS = test system: SNB-75 CNS
NCI-H23 lung = test system: NCI-H23 lung
786-0 renal = test system: 786-0 renal
RXF 393 renal = test system: RXF 393 renal
HCT-15 colon = test system: HCT-15 colon
EKVX NSCLC = test system: EKVX NSCLC
COLO 205 colon = test system: COLO 205 colon
HOP-92 NSCLC = test system: HOP-92 NSCLC
SW-620 colon = test system: SW-620 colon
SF-295 CNS = test system: SF-295 CNS
UACC-257 melanoma = test system: UACC-257 melanoma
A549 NSCLC = test system: A549 NSCLC
HS 578T breast = test system: HS 578T breast
U251 CNS = test system: U251 CNS
CCRF-CEM leukemia = test system: CCRF-CEM leukemia
UO-31 renal = test system: UO-31 renal
SK-MEL-28 melanoma = test system: SK-MEL-28 melanoma
SN12C renal = test system: SN12C renal
IGROV1 ovarian = test system: IGROV1 ovarian
OVCAR-5 ovarian = test system: OVCAR-5 ovarian
OVCAR-8 ovarian = test system: OVCAR-8 ovarian
CAKI-1 renal = test system: CAKI-1 renal
MALME-3M melanoma = test system: MALME-3M melanoma
OVCAR-3 ovarian = test system: OVCAR-3 ovarian
SK-OV-3 ovarian = test system: SK-OV-3 ovarian
ACHN renal = test system: ACHN renal
MOLT-4 leukemia = test system: MOLT-4 leukemia
RPMI-8226 leukemia = test system: RPMI-8226 leukemia
NCI-H460 lung = test system: NCI-H460 lung
LOX IMVI melanoma = test system: LOX IMVI melanoma
KM12 colon = test system: KM12 colon
MCF7 breast = test system: MCF7 breast
HCC-2998 colon = test system: HCC-2998 colon
BT-549 breast = test system: BT-549 breast
K-562 leukemia = test system: K-562 leukemia
MDA-MB-468 breast = test system: MDA-MB-468 breast
HOP-62 NSCLC = test system: HOP-62 NSCLC
HL-60(TB) leukemia = test system: HL-60(TB) leukemia
NCI-H522 lung = test system: NCI-H522 lung
SNB-19 CNS = test system: SNB-19 CNS
SK-MEL-5 melanoma = test system: SK-MEL-5 melanoma
HT29 colon = test system: HT29 colon
SF-539 CNS = test system: SF-539 CNS
SF-268 CNS = test system: SF-268 CNS
HCT-116 colon = test system: HCT-116 colon
SK-MEL-2 melanoma = test system: SK-MEL-2 melanoma
T-47D breast = test system: T-47D breast
MDA-MB-435 = test system: MDA-MB-435
A498 renal = test system: A498 renal
MDA-MB-231 breast = test system: MDA-MB-231 breast
DU-145 prostate = test system: DU-145 prostate
OVCAR-4 ovarian = test system: OVCAR-4 ovarian
M14 melanoma = test system: M14 melanoma
PC-3 prostate = test system: PC-3 prostate
NCI-H226 lung = test system: NCI-H226 lung
TK-10 renal = test system: TK-10 renal
UACC-62 melanoma = test system: UACC-62 melanoma
SR leukemia = test system: SR leukemia

O=C(/C=C/c1ccc(Br)cc1)c1nc2ccccc2n1Cc1ccc(Br)cc1
GI50 (SNB-75 CNS): > 100 µM | TGI (SNB-75 CNS): > 100 µM | GI50 (NCI-H23 lung): > 100 µM | TGI (NCI-H23 lung): > 100 µM | GI50 (786-0 renal): > 100 µM | TGI (786-0 renal): > 100 µM | GI50 (RXF 393 renal): 86.9 µM | TGI (RXF 393 renal): > 100 µM | GI50 (HCT-15 colon): 40.5 µM | TGI (HCT-15 colon): > 100 µM | GI50 (EKVX NSCLC): > 100 µM | TGI (EKVX NSCLC): > 100 µM | GI50 (COLO 205 colon): > 100 µM | TGI (COLO 205 colon): > 100 µM | GI50 (HOP-92 NSCLC): 58.6 µM | TGI (HOP-92 NSCLC): > 100 µM | GI50 (SW-620 colon): 30 µM | TGI (SW-620 colon): > 100 µM | GI50 (SF-295 CNS): > 100 µM | TGI (SF-295 CNS): > 100 µM | GI50 (UACC-257 melanoma): > 100 µM | TGI (UACC-257 melanoma): > 100 µM | GI50 (A549 NSCLC): > 100 µM | TGI (A549 NSCLC): > 100 µM | GI50 (HS 578T breast): > 100 µM | TGI (HS 578T breast): > 100 µM | GI50 (U251 CNS): 42.6 µM | TGI (U251 CNS): > 100 µM | GI50 (CCRF-CEM leukemia): 18.2 µM | TGI (CCRF-CEM leukemia): > 100 µM | GI50 (UO-31 renal): 45.9 µM | TGI (UO-31 renal): > 100 µM | GI50 (SK-MEL-28 melanoma): > 100 µM | TGI (SK-MEL-28 melanoma): > 100 µM | GI50 (SN12C renal): > 100 µM | TGI (SN12C renal): > 100 µM | GI50 (IGROV1 ovarian): > 100 µM | TGI (IGROV1 ovarian): > 100 µM | GI50 (OVCAR-5 ovarian): > 100 µM | TGI (OVCAR-5 ovarian): > 100 µM | GI50 (OVCAR-8 ovarian): 97.7 µM | TGI (OVCAR-8 ovarian): > 100 µM | GI50 (CAKI-1 renal): 53 µM | TGI (CAKI-1 renal): > 100 µM | GI50 (MALME-3M melanoma): > 100 µM | TGI (MALME-3M melanoma): > 100 µM | GI50 (OVCAR-3 ovarian): 35 µM | TGI (OVCAR-3 ovarian): > 100 µM | GI50 (SK-OV-3 ovarian): > 100 µM | TGI (SK-OV-3 ovarian): > 100 µM | GI50 (ACHN renal): > 100 µM | TGI (ACHN renal): > 100 µM | GI50 (MOLT-4 leukemia): 17 µM | TGI (MOLT-4 leukemia): > 100 µM | GI50 (RPMI-8226 leukemia): 25.2 µM | TGI (RPMI-8226 leukemia): > 100 µM | GI50 (NCI-H460 lung): 59.3 µM | TGI (NCI-H460 lung): > 100 µM | GI50 (LOX IMVI melanoma): 30.9 µM | TGI (LOX IMVI melanoma): > 100 µM | GI50 (KM12 colon): 80.5 µM | TGI (KM12 colon): > 100 µM | GI50 (MCF7 breast): 24.1 µM | TGI (MCF7 breast): > 100 µM | GI50 (HCC-2998 colon): > 100 µM | TGI (HCC-2998 colon): > 100 µM | GI50 (BT-549 breast): 96 µM | TGI (BT-549 breast): > 100 µM | GI50 (K-562 leukemia): 39.5 µM | TGI (K-562 leukemia): > 100 µM | GI50 (MDA-MB-468 breast): 35.9 µM | TGI (MDA-MB-468 breast): > 100 µM | GI50 (HOP-62 NSCLC): > 100 µM | TGI (HOP-62 NSCLC): > 100 µM | GI50 (HL-60(TB) leukemia): 24.1 µM | TGI (HL-60(TB) leukemia): > 100 µM | GI50 (NCI-H522 lung): > 100 µM | TGI (NCI-H522 lung): > 100 µM | GI50 (SNB-19 CNS): > 100 µM | TGI (SNB-19 CNS): > 100 µM | GI50 (SK-MEL-5 melanoma): > 100 µM | TGI (SK-MEL-5 melanoma): > 100 µM | GI50 (HT29 colon): 68.7 µM | TGI (HT29 colon): > 100 µM | GI50 (SF-539 CNS): > 100 µM | TGI (SF-539 CNS): > 100 µM | GI50 (SF-268 CNS): > 100 µM | TGI (SF-268 CNS): > 100 µM | GI50 (HCT-116 colon): 56.6 µM | TGI (HCT-116 colon): > 100 µM | GI50 (SK-MEL-2 melanoma): > 100 µM | TGI (SK-MEL-2 melanoma): > 100 µM | GI50 (T-47D breast): 24.7 µM | TGI (T-47D breast): > 100 µM | GI50 (MDA-MB-435): 35.6 µM | TGI (MDA-MB-435): > 100 µM | GI50 (A498 renal): > 100 µM | TGI (A498 renal): > 100 µM | GI50 (MDA-MB-231 breast): 99.1 µM | TGI (MDA-MB-231 breast): > 100 µM | GI50 (DU-145 prostate): > 100 µM | TGI (DU-145 prostate): > 100 µM | GI50 (OVCAR-4 ovarian): > 100 µM | TGI (OVCAR-4 ovarian): > 100 µM | GI50 (M14 melanoma): > 100 µM | TGI (M14 melanoma): > 100 µM | GI50 (PC-3 prostate): 58.6 µM | TGI (PC-3 prostate): > 100 µM | GI50 (NCI-H226 lung): > 100 µM | TGI (NCI-H226 lung): > 100 µM | GI50 (TK-10 renal): > 100 µM | TGI (TK-10 renal): > 100 µM | GI50 (UACC-62 melanoma): > 100 µM | TGI (UACC-62 melanoma): > 100 µM | GI50 (SR leukemia): 28 µM | TGI (SR leukemia): > 100 µM
